Laboratory results taken from article PMC7037682, “Herb–Drug Interaction of Red Ginseng Extract and Ginsenoside Rc with Valsartan in Rats” (Molecules, 2020).
Read-outs that look alike come from different tables or passages of the source.

Experiments:
[1] = target: T1, OATP1B1 (Homo sapiens, UniProt Q9Y6L6); assay: Inhibition of OATP1B1-mediated [3H]estrone-3-sulfate uptake in HEK293-OATP1B1 cells
T1 sequence (Q9Y6L6 1-691): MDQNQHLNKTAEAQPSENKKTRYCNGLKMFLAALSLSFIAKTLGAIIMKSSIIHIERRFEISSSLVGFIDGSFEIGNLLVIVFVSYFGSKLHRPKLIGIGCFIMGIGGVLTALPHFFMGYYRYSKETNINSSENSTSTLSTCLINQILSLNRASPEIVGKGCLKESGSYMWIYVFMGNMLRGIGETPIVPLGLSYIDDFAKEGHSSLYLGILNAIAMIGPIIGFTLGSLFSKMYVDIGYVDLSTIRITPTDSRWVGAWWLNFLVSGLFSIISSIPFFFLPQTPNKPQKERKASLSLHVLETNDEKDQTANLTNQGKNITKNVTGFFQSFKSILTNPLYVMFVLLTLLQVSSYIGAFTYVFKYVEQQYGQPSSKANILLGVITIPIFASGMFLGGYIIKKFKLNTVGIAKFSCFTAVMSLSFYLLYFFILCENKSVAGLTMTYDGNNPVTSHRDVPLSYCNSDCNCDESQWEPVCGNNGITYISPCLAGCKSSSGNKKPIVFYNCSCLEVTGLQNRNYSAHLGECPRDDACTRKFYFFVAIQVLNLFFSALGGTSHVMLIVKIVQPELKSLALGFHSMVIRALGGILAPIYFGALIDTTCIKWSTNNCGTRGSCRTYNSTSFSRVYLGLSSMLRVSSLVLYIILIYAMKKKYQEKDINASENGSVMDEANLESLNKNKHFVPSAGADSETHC
Procedure: (§1) HEK293 cells overexpressing the OCT1, OCT2, OAT1, OAT3, OATP1B1, and OATP1B3 transporters (HEK293-OCT1, -OCT2, -OAT1, -OAT3, -OATP1B1, and -OATP1B3, respectively) and HEK293-mock cells (Corning Life Sciences; Woburn, MA, USA) were used and characterized as previously described.
(§2) HEK293 cells overexpressing drug transporters and HEK293-mock cells were seeded in poly-D-lysine-coated 96-well plates at a density of 10^5 cells/well and were cultured in DMEM supplemented with 10% FBS, 5 mM non-essential amino acids, and 2 mM sodium butyrate in a humidified atmosphere with 8% CO2 at 37 °C.
(§3) To examine the effects of ginsenosides and typical inhibitors on transporter activity, aliquots (100 μL) of HBSS containing the probe substrate and ginsenosides or typical inhibitors were added to the cells after aspirating pre-incubated HBSS. The concentrations and probe substrates were as follows: 0.1 μM [^3H]MPP^+ for OCT1 and OCT2, 0.1 μM [^3H]PAH for OAT1, 0.1 μM [^3H]ES for OAT3 and OATP1B1, and 0.1 μM [^3H]EG for OATP1B3. […] Then the uptake of probe substrates into HEK293-mock cells and HEK293-OCT1, -OCT2, -OAT1, -OAT3, -OATP1B1, and -OATP1B3 cells in the presence and absence of typical inhibitor or each ginsenoside with previously described concentration range was measured for 5 min. Immediately after placing the plates on ice, the cells were washed three times with 100 μL of ice-cold HBSS, followed by lysing with 50 μL of 10% SDS solution and mixing with 150 μL of Optiphase cocktail solution (Perkin Elmer Inc., Boston, MA, USA). The radioactivity of the probe substrates in the cells was determined using a liquid scintillation counter.
(§4) In the inhibition studies, the uptake rate of substrate by HEK293 cells overexpressing the respective transporters was used as the control (100%) and the uptake rate of substrates in the presence of typical inhibitors or ginsenosides expressed as a percentage of the control. The inhibition data were fitted to an inhibitory effect model using Sigma plot (version 10.0; Systat Software Inc., San Jose, CA, USA). IC50 value indicated the half-maximal inhibitory concentration of the inhibitor.

[2] = target: T2, OAT1 (Homo sapiens, UniProt Q4U2R8); assay: Inhibition of OAT1-mediated [3H]PAH uptake in HEK293-OAT1 cells
T2 sequence (Q4U2R8 1-563): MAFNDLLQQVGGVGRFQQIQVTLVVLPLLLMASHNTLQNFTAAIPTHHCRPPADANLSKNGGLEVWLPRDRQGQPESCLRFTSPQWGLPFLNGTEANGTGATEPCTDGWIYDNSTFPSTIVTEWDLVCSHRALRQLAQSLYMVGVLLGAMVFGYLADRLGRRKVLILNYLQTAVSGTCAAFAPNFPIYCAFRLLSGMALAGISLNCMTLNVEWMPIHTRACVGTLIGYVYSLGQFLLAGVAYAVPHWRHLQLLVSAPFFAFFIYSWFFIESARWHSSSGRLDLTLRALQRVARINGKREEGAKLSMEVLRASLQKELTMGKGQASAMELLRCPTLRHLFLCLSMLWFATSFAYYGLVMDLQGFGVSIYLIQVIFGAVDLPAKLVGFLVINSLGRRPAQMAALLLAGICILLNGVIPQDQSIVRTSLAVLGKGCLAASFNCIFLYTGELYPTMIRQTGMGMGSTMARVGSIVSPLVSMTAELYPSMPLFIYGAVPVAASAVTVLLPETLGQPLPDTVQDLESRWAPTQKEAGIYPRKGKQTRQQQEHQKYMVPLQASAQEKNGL
Procedure: as §1, §2
Then the uptake of probe substrates into HEK293-mock cells and HEK293-OCT1, -OCT2, -OAT1, -OAT3, -OATP1B1, and -OATP1B3 cells in the presence and absence of typical inhibitor or each ginsenoside with previously described concentration range was measured for 5 min. Immediately after placing the plates on ice, the cells were washed three times with 100 μL of ice-cold HBSS, followed by lysing with 50 μL of 10% SDS solution and mixing with 150 μL of Optiphase cocktail solution (Perkin Elmer Inc., Boston, MA, USA). The radioactivity of the probe substrates in the cells was determined using a liquid scintillation counter.
as §4

[3] = target: T3, OAT3 (Homo sapiens, UniProt Q8TCC7); assay: Inhibition of OAT3-mediated [3H]ES uptake in HEK293-OAT3 cells
T3 sequence (Q8TCC7 1-542): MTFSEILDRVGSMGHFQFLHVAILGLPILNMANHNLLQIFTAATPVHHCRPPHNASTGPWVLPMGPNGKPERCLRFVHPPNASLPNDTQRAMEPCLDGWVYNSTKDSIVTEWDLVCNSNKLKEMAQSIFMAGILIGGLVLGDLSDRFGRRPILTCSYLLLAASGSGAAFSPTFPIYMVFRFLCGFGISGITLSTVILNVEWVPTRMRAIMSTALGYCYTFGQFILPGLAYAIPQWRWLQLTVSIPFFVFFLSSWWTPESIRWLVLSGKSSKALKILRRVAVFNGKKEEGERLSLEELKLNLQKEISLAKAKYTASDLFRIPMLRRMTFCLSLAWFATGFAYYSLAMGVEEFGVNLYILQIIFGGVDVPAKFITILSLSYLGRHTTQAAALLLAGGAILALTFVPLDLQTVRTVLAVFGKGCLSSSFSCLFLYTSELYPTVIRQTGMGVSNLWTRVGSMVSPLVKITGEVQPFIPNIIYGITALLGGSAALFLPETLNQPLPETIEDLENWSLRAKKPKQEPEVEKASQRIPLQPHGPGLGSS
Procedure: as §1, §2, §3, §4

[4] = read-out: IC50 OATP1B1, HEK293-OATP1B1, 0.1 μM [3H]ES uptake, 5 min
[5] = read-out: IC50 OAT1, HEK293-OAT1, 0.1 μM [3H]PAH uptake, 5 min
[6] = read-out: IC50 OAT3, HEK293-OAT3, 0.1 μM [3H]ES uptake, 5 min
[7] = HEK293-OATP1B1, 0.1 μM [3H]ES uptake, 5 min

Structure (SMILES) | IC50 [1, 4] | IC50 [2, 5] | IC50 [3, 6] | IC50 [1] | IC50 [2] | IC50 [3] | IC50 OATP1B1 [1, 7]
CC(C)=CCC[C@](C)(O)[C@H]1CC[C@]2(C)[C@@H]1[C@H](O)C[C@@H]1[C@@]3(C)CC[C@H](O[C@@H]4O[C@H](CO)[C@@H](O)[C@H](O)[C@H]4O[C@@H]4O[C@H](CO)[C@@H](O)[C@H](O)[C@H]4O)C(C)(C)[C@@H]3CC[C@]12C [Rg3, ginsenoside Rg3] | 7.99 µM | > 100 µM | > 100 µM |  |  |  | 
CC(C)=CCC[C@](C)(O)[C@H]1CC[C@]2(C)[C@@H]1[C@H](O)C[C@@H]1[C@@]3(C)CC[C@H](O[C@@H]4O[C@H](CO)[C@@H](O)[C@H](O)[C@H]4O)C(C)(C)[C@@H]3CC[C@]12C [Rh2, ginsenoside Rh2] |  |  |  | 22.3 µM | > 100 µM | > 100 µM | 
CC(C)=CCC[C@](C)(O)[C@H]1CC[C@]2(C)[C@@H]1[C@H](O)C[C@@H]1[C@@]3(C)CC[C@H](O)C(C)(C)[C@@H]3[C@@H](O)C[C@]12C [PPT, protopanaxatriol] | > 100 µM | > 100 µM | > 100 µM |  |  |  | did not inhibit
CC(C)=CCC[C@](C)(O[C@@H]1O[C@H](CO[C@@H]2OC[C@H](O)[C@H](O)[C@H]2O)[C@@H](O)[C@H](O)[C@H]1O)[C@H]1CC[C@]2(C)[C@@H]1[C@H](O)C[C@@H]1[C@@]3(C)CC[C@H](O[C@@H]4O[C@H](CO)[C@@H](O)[C@H](O)[C@H]4O[C@@H]4O[C@H](CO)[C@@H](O)[C@H](O)[C@H]4O)C(C)(C)[C@@H]3CC[C@]12C [Rb2, ginsenoside Rb2] |  |  |  | 47.6 µM | > 100 µM | > 100 µM | 
CC(C)=CCC[C@](C)(O)[C@H]1CC[C@]2(C)[C@@H]1[C@H](O)C[C@@H]1[C@@]3(C)CC[C@H](O)C(C)(C)[C@@H]3[C@@H](O[C@@H]3O[C@H](CO)[C@@H](O)[C@H](O)[C@H]3O)C[C@]12C [Rh1, ginsenoside Rh1] |  |  |  | > 100 µM | > 100 µM | > 100 µM | did not inhibit
CC(C)=CCC[C@](C)(O[C@@H]1O[C@H](CO[C@@H]2O[C@H](CO)[C@@H](O)[C@H](O)[C@H]2O)[C@@H](O)[C@H](O)[C@H]1O)[C@H]1CC[C@]2(C)[C@@H]1[C@H](O)C[C@@H]1[C@@]3(C)CC[C@H](O[C@@H]4O[C@H](CO)[C@@H](O)[C@H](O)[C@H]4O[C@@H]4O[C@H](CO)[C@@H](O)[C@H](O)[C@H]4O)C(C)(C)[C@@H]3CC[C@]12C [Rb1, ginsenoside Rb1] |  |  |  | 68.2 µM | > 100 µM | > 100 µM | 
CC(C)=CCC[C@](C)(O[C@@H]1O[C@H](CO[C@@H]2O[C@@H](CO)[C@H](O)[C@H]2O)[C@@H](O)[C@H](O)[C@H]1O)[C@H]1CC[C@]2(C)[C@@H]1[C@H](O)C[C@@H]1[C@@]3(C)CC[C@H](O[C@@H]4O[C@H](CO)[C@@H](O)[C@H](O)[C@H]4O[C@@H]4O[C@H](CO)[C@@H](O)[C@H](O)[C@H]4O)C(C)(C)[C@@H]3CC[C@]12C [Rc, ginsenoside Rc] |  |  |  | 18.3 µM | > 100 µM | > 100 µM | 
CC(C)=CCC[C@](C)(O[C@@H]1O[C@H](CO)[C@@H](O)[C@H](O)[C@H]1O)[C@H]1CC[C@]2(C)[C@@H]1[C@H](O)C[C@@H]1[C@@]3(C)CC[C@H](O)C(C)(C)[C@@H]3[C@@H](O[C@@H]3O[C@H](CO)[C@@H](O)[C@H](O)[C@H]3O[C@@H]3O[C@@H](C)[C@H](O)[C@@H](O)[C@H]3O)C[C@]12C [Re, ginsenoside Re] |  |  |  | > 100 µM | > 100 µM | > 100 µM | did not inhibit
CC(C)=CCCC(C)(O)[C@H]1CC[C@]2(C)[C@@H]1[C@H](O)C[C@@H]1[C@@]3(C)CC[C@H](O)C(C)(C)[C@@H]3CC[C@]12C (stereo in doubt) [PPD, protopanaxadiol] | > 100 µM | > 100 µM | > 100 µM |  |  |  | 
CC(C)=CCC[C@](C)(O[C@@H]1O[C@H](CO)[C@@H](O)[C@H](O)[C@H]1O)[C@H]1CC[C@]2(C)[C@@H]1[C@H](O)C[C@@H]1[C@@]3(C)CC[C@H](O)C(C)(C)[C@@H]3[C@@H](O[C@@H]3O[C@H](CO)[C@@H](O)[C@H](O)[C@H]3O)C[C@]12C [Rg1, ginsenoside Rg1] |  |  |  | > 100 µM | > 100 µM | > 100 µM | did not inhibit
CC(C)=CCC[C@](C)(O[C@@H]1O[C@H](CO)[C@@H](O)[C@H](O)[C@H]1O)[C@H]1CC[C@]2(C)[C@@H]1[C@H](O)C[C@@H]1[C@@]3(C)CC[C@H](O[C@@H]4O[C@H](CO)[C@@H](O)[C@H](O)[C@H]4O[C@@H]4O[C@H](CO)[C@@H](O)[C@H](O)[C@H]4O)C(C)(C)[C@@H]3CC[C@]12C [Rd, ginsenoside Rd] |  |  |  | 15.9 µM | > 100 µM | > 100 µM | 
CC(C)=CCC[C@](C)(O[C@@H]1O[C@H](CO)[C@@H](O)[C@H](O)[C@H]1O)[C@H]1CC[C@]2(C)[C@@H]1[C@H](O)C[C@@H]1[C@@]3(C)CC[C@H](O)C(C)(C)[C@@H]3CC[C@]12C [Compound K, compound K] | 22.5 µM | > 100 µM | > 100 µM |  |  |  | 
